In patent US12448366B2, “Solid forms of pralsetinib” (Rigel Pharmaceuticals, Inc., priority 2020, dated 2025):
In brackets after ≈: the same amount, converted by molar mass. Where two headings read alike, the source gives them in different places.

What was measured:
Format in all cases: physicochemical
[1] = Drying of free base solid forms (XRPD); settings: for behaviour upon drying: XRPD
[2] = Co-milling co-crystal screening, XRPD; settings: co-milling with freebase
Experimental: About 30 mg of Compound (I) freebase and 1.05 eq. of co-former were direct weighed into the milling capsule and manually mixed before the addition of 1 volume of solvent (MtBE, MeOAc, or EtOH). Each system was milled once for 30 seconds before solids were collected. Samples of the wet material were taken for XRPD of the ‘wet’ material before drying under active vacuum at 50° C. for 2 hours. Unique patterns were further exposed to 97% R.H. for 24 hours.

[3] = Co-melting co-crystal screening, XRPD; settings: co-melting with pralsetinib freebase, 1.05 eq. co-former
Experimental: The resulting powder was packed into a 100 μL DSC pan and heated at a rate of 10° C./min to 10° C. above the melting temperature of the lowest melting component. The experiment was isothermally held for 5 min before cooling to room temperature at a rate of 10° C./min. Samples were then taken for XRPD.

[4] = Dynamic vapor sorption (DVS); settings: for DVS Mass Change: glutarate and succinate: between 2% and 90% relative humidity
Experimental: Dynamic Vapor Sorption (DVS) was done using a DVS Intrinsic 1. The sample is loaded into a sample pan and suspended from a microbalance. A typical sample mass for DVS measurement is 25 mg. Nitrogen gas bubbled through distilled water provides the desired relative humidity. A typical measurement comprises the steps: • 1—Equilibrate at 50% RH • 2—50% to 2%. (50%, 40%, 30%, 20%, 10% and 2%) • a. Hold minimum of 5 mins and maximum of 60 minutes at each humidity. The pass criteria is less than 0.002% change • 3—2% to 95% (2%, 10%, 20%, 30%, 40%, 50%, 60%, 70%, 80%, 90%, 95%) • a. Hold minimum of 5 mins and maximum of 60 minutes at each humidity. The pass criteria is less than 0.002% change • 4—95% to 2% (95%, 80%, 70%, 60%, 50%, 40%, 30%, 20%, 10%, 2%) • a. Hold minimum of 5 mins and maximum of 60 minutes at each humidity. The pass criteria is less than 0.002% change • 5—2% to 50% (2%, 10%, 20%, 30%, 40%, 50%) • a. Hold minimum of 5 mins and maximum of 60 minutes at each humidity. The pass criteria is less than 0.002% change High Pressure Liquid Chromatography (HPLC)
Dynamic Vapor Sorption (DVS) was performed using a DVS Intrinsic 1. The samples (12-31 mg) was loaded into a sample pan, suspended from a microbalance and exposed to a humidified stream of nitrogen gas. The sample was held for a minimum of 5 min at each level and only progressed to the next humidity level if there was <0.002% change in weight between measurements (interval: 60 seconds) or 240 min had elapsed. The following program was used: • 1—Equilibration at 50% RH • 2—50% to 2%. (50%, 40%, 30%, 20%, 10% and 2%) • 3—2% to 95% (2%, 10%, 20%, 30%, 40%, 50%, 60%, 70%, 80%, 90%, 95%) • 4—95% to 2% (95%, 80%, 70%, 60%, 50%, 40%, 30%, 20%, 10%, 2%) • 5—2% to 50% (2%, 10%, 20%, 30%, 40%, 50%) High Performance Liquid Chromatography (HPLC)

[5] = Humidity exposure, 75% relative humidity at 40° C. for one week, XRPD; settings: for stability on exposure to 75% relative humidity at 40° C.: one week / 7 days, XRPD
[6] = Solubility in water and simulated fluids (fasted/fed state simulated intestinal fluid, fasted state simulated gastric fluid); settings: for solubility: thermodynamic from solid
[7] = One week (7 days) slurry stability by XRPD and HPLC; settings: for stability slurrying 7 days in EtOAc / stability slurrying 7 days in EtOH / stability slurrying 7 days in EtOH:water (95:5 vol): XRPD and HPLC
[8] = Salt screening: XRPD of wet cake, after drying under vacuum at 50° C., after exposure to 97% relative humidity; settings: XRPD; for stability of salt solid form to humidification: 97% (>95%) relative humidity; for stability of salt solid form to drying: vacuum at 50° C.
Experimental: Stock solutions of counter-ion were prepared in EtOH, MeOH, or EtOAc, depending on solubility. […] The solvent was allowed to evaporate at room temperature over the weekend and then placed at 50° C. under vacuum for 3 hours to remove any remaining solvent. Approximately 25 volumes solvent (0.6 mL) was added to each vial for screening. The three solvents selected were EtOH, EtOAc, and IPA:water (9:1 vol). […] XRPD analysis was done in three stages. XRPD of the wet cake was done for all samples. Unique solids were then left on XRPD plates and dried under vacuum at 50° C. XRPD of unique dry solids was then done. […] The humid environment was generated by placing a beaker of saturated potassium sulfate in water in a sealed container. All XRPD patterns were compared to counter ion XRPD patterns and known free base patterns. Where solids were not of sufficient quantity to isolate, the solvent was evaporated at room temperature, the material dried at 50° C. under active vacuum for 3 hours, and then reslurried at room temperature in either MtBE or IPAc overnight after heating to 45° C. for 30 minutes.

## CO[C@]1(C(=O)N[C@@H](C)c2ccc(-n3cc(F)cn3)nc2)CC[C@H](c2nc(C)cc(Nc3cc(C)[nH]n3)n2)CC1 [Solid Form K, pralsetinib]
[1]
  behaviour upon drying: unstable on drying and converted to material characterized by XRPD Pattern M

## Urea
[2]; solvent EtOH
  Wet (XRPD): 16-B + FB-C
[2]; solvent EtOH, 97% R.H. for 24 hours
  Humidity (XRPD): 16-B + FB-C
[2]; solvent MtBE, MeOAc
  Wet (XRPD): FB-C + urea
[3]
  Dry (XRPD): FB-A +

## CO[C@]1(C(=O)N[C@@H](C)c2ccc(-n3cc(F)cn3)nc2)CC[C@H](c2nc(C)cc(Nc3cc(C)[nH]n3)n2)CC1 [Solid Form D, pralsetinib]
[1]
  behaviour sitting in atmosphere: converted to other solid forms
  behaviour upon drying: converted to solid form B

## O.O.O=c1c(O)c(-c2ccc(O)c(O)c2)oc2cc(O)cc(O)c12 [Quercetin Dihydrate]
[2]; solvent MtBE, MeOAc, EtOH
  Wet (XRPD): FB-C + quercetin
[3]
  Dry (XRPD): Am.

## CO[C@]1(C(=O)N[C@@H](C)c2ccc(-n3cc(F)cn3)nc2)CC[C@H](c2nc(C)cc(Nc3cc(C)[nH]n3)n2)CC1 [Solid Form Q, pralsetinib]
[1]
  behaviour upon drying: lost crystallinity

## O=C(O)c1ccccc1 [Benzoic Acid]
[2]; solvent MtBE, MeOAc, EtOH
  Wet (XRPD): FB-C
[3]
  Dry (XRPD): Am.

## CO[C@]1(C(=O)N[C@@H](C)c2ccc(-n3cc(F)cn3)nc2)CC[C@H](c2nc(C)cc(Nc3cc(C)[nH]n3)n2)CC1 [Solid Form 15-A, pralsetinib]
[4]; between 2% and 90% relative humidity, listed as solid form 15-A
  mass change by DVS: 3.4 wt. %
[4]; between 15% and 75% relative humidity, listed as solid form 15-A
  mass change by DVS: 1.9 wt. %
[4]; listed as Succinate 15-A
  DVS Mass Change: 3.40 wt. %
[4]; listed as solid form 15-A
  reversibility of the DVS mass change: appears to be reversible
[5]; listed as Solid form 15-A
  stability on exposure to 75% relative humidity at 40° C.: converted to Pattern 15-A+B
[6]
  solubility in simulated gastric fluid: high solubility
[6]; fasted state simulated gastric fluid, listed as solid form 15-A
  residual solid after solubility test: solid form 15-D
[6]; listed as solid form 15-A
  Solubility in fasted state simulated gastric fluid: 1120 µg/mL (≈ 2100 µM)
  Solubility in fasted state simulated intestinal fluid: 20 µg/mL (≈ 37.5 µM)
  Solubility in fed state simulated intestinal fluid: 840 µg/mL (≈ 1570 µM)
  Solubility in water: 450 µg/mL (≈ 843 µM)
[7]; listed as Solid form 15-A
  stability slurrying 7 days in EtOAc: stable
  stability slurrying 7 days in EtOH: stable
  stability slurrying 7 days in EtOH:water (95:5 vol): converted to Pattern 15-C
[7]; EtOH:water (95:5 vol) slurry
  reduction in purity after 7 days slurry: 0.13%
[8]; listed as Pattern 15-A
  stability of salt solid form to humidification: stable
[8]; listed as succinate 15-A
  stability of salt solid form to humidification: stable
  stability of salt solid form to drying: stable

## CO[C@]1(C(=O)N[C@@H](C)c2ccc(-n3cc(F)cn3)nc2)CC[C@H](c2nc(C)cc(Nc3cc(C)[nH]n3)n2)CC1 [Solid Form P, pralsetinib]
[1]
  behaviour upon drying: unstable upon drying and converted to a mixture of material characterized by XRPD Pattern P and XRPD Pattern L and extra peaks

## CO[C@]1(C(=O)N[C@@H](C)c2ccc(-n3cc(F)cn3)nc2)CC[C@H](c2nc(C)cc(Nc3cc(C)[nH]n3)n2)CC1 [Solid Form L, pralsetinib]
[1]; listed as Pattern L
  behaviour upon drying: stable

## O=C(O)c1ccc(O)cc1 [4-Hydroxybenzoic Acid]
[2]; solvent MtBE, MeOAc, EtOH
  Wet (XRPD): FB-C
[3]
  Dry (XRPD): Am.

## CO[C@]1(C(=O)N[C@@H](C)c2ccc(-n3cc(F)cn3)nc2)CC[C@H](c2nc(C)cc(Nc3cc(C)[nH]n3)n2)CC1 [Solid Form J, pralsetinib]
[1]
  behaviour upon drying: unstable and quickly converted to amorphous
[1]; listed as Pattern J
  behaviour upon drying: either lost crystallinity or became amorphous

## CO[C@]1(C(=O)N[C@@H](C)c2ccc(-n3cc(F)cn3)nc2)CC[C@H](c2nc(C)cc(Nc3cc(C)[nH]n3)n2)CC1 [Solid Form 14-A, pralsetinib]
[4]
  hysteresis in the DVS plot: minimal hysteresis
[4]; between 2% and 90% relative humidity, listed as solid form 14-A
  mass change by DVS: 0.94 wt. %
[4]; between 15% and 75% relative humidity, listed as solid form 14-A
  mass change by DVS: 0.86 wt. %
[4]; listed as Phosphate 14-A
  DVS Mass Change: 0.94 wt. %
[4]; listed as solid form 14-A
  reversibility of the DVS mass change: appears to be reversible
[5]; XRPD pattern after exposure, listed as Phosphate 14-A
  Stability 40° C./75% RH: Stable
[5]; listed as solid form 14-A
  stability on exposure to 75% relative humidity at 40° C.: stable
[6]; fasted state simulated gastric fluid, fassgf or other biorelevant, read-out: Solubility in fasted state simulated gastric fluid
  solubility: 1760 µg/mL (≈ 3300 µM)
[6]; fasted state simulated gastric fluid, listed as solid form 14-A
  residual solid after solubility test: amorphous
[6]; fasted state simulated intestinal fluid
  residual solid after solubility test: pralsetinib freebase solid form A
[6]; fed state simulated intestinal fluid
  residual solid after solubility test: amorphous
[6]; fed state simulated intestinal fluid, fessif, read-out: Solubility in fed state simulated intestinal fluid
  solubility: 490 µg/mL (≈ 918 µM)
[6]; listed as solid form 14-A
  Solubility in fasted state simulated intestinal fluid: 200 µg/mL (≈ 375 µM)
  Solubility in water: 1700 µg/mL (≈ 3190 µM)
  solubility in water: high solubility
[6]; water
  residual solid after solubility test: XRPD Pattern 14-A
[7]
  Stability 7-day slurry: Stable
[7]; listed as solid form 14-A
  stability slurrying 7 days in EtOAc: stable
  stability slurrying 7 days in EtOH: stable
  stability slurrying 7 days in EtOH:water (95:5 vol): stable
[7]; materials isolated from EtOAc
  reduction (HPLC purity) after 7 days slurry: 0.07%
[8]; listed as Pattern 14-A
  stability of salt solid form to humidification: stable
  stability of salt solid form to drying: stable
[8]; listed as phosphate 14-A
  stability of salt solid form to humidification: stable
  stability of salt solid form to drying: stable
[8]; listed as solid form 14-A
  stability of salt solid form to humidification: stable
  stability of salt solid form to drying: stable

## O=C(O)c1cc(O)ccc1O [Gentisic Acid]
[2]; solvent MtBE, MeOAc, EtOH
  Wet (XRPD): FB-C
[3]
  Dry (XRPD): Am.

## Nc1ccc(C(=O)O)cc1 [4-Aminobenzoic Acid]
[2]; solvent EtOH
  Wet (XRPD): FB-C
[2]; solvent MtBE, MeOAc
  Wet (XRPD): FB-C + 4-Aminobenzoic

## COc1cc(C(=O)O)ccc1O [Vanillic Acid]
[2]; solvent EtOH
  Wet (XRPD): FB-C
[2]; solvent MtBE, MeOAc
  Wet (XRPD): FB-C + vanillic acid
[3]
  Dry (XRPD): Am.

## CO[C@]1(C(=O)N[C@@H](C)c2ccc(-n3cc(F)cn3)nc2)CC[C@H](c2nc(C)cc(Nc3cc(C)[nH]n3)n2)CC1 [Solid Form I, pralsetinib]
[1]; listed as Pattern I
  behaviour upon drying: lost crystallinity

## O=C1NS(=O)(=O)c2ccccc21 [Saccharin]
[2]; solvent EtOH
  Wet (XRPD): Am. + 1 peak
[2]; solvent MeOAc
  Wet (XRPD): Am. + trace FB-C
[2]; solvent MtBE
  Wet (XRPD): FB-C + saccharin
[3]
  Dry (XRPD): Am.
